The subject of data set [1] is FR-negative human lung carcinoma A549 cells. Nature of the data set: cells. The format is cell-based. The following applies: for pIC50: read-out: IC50, Inhibition of Cell Growth by the PrestoBlue Method; for inhibition at 10 µM: read-out: Percentage inhibition at the highest concentration tested (10 μM). As to the method: (§1) Folate receptor (FR)-positive KB cells (Human) from European Collection of Cell Cultures (ECACC) [Catalogue #94050408] or FR-negative human lung carcinoma A549 cells from American Type Culture Collection (ATCC) [Catalogue # CCL-185] were maintained in T75 flasks in folic acid-free RPMI 1640 medium (Invitrogen, catalogue no. 27016021) containing 10% fetal bovine serum (FBS; Invitrogen, catalogue no. 16140-071) and penicillin/streptomycin (Invitrogen, catalogue no. 15140-122) at 37° C., 5% CO2.
(§2) Cells were harvested from their maintenance cultures and seeded in 96-well plates at a density of 10000 cells per well in 100 μL folic acid-free RPMI 1640 medium and incubated at 37° C., 5% CO2 for 20-24 hours. Thirty minutes prior to compound treatment, spent medium was removed and replaced with 100 μL fresh folic acid-free RPMI 1640 medium either as such, or supplemented with 100 μmol/L folic acid. The test compounds were diluted to three times their desired final concentrations in the culture medium from their DMSO stocks. […] Following compound treatment, the cells were washed thrice with 100 μL medium and incubated with 180 μL fresh medium for 72 hours. To assess cell viability, 20 μL of PrestoBlue reagent (Invitrogen, catalogue # A-13261) was added to the wells and the plates were further incubated for 1 hour at 37° C. The PrestoBlue reagent contains a cell-permeant dye, resazurin, which is blue in color and virtually nonfluorescent. When added to cells, it is reduced by the mitochondrial enzymes in viable cells to red, highly fluorescent resorufin. Resazurin reduction is proportional to the number of metabolically active cells and therefore can be measured quantitatively. Following incubation with the PrestoBlue reagent for 1 hour, fluorescence corresponding to the resorufin dye was read on a Synergy 4 multimode microplate reader (Biotek Instruments) with the excitation and emission wavelengths set at 540 nm and 590 nm respectively. The data was analysed using XLFit and the percentage inhibition of cell proliferation was calculated.

The test system of data set [2] is Folate receptor (FR)-positive KB cells. In words: cells. Format: cell-based, Human. The following applies: for pIC50: read-out: IC50, Inhibition of Cell Growth by the PrestoBlue Method; for inhibition at 10 µM: KB, read-out: Percentage inhibition at the highest concentration tested (10 μM). As to the method: as §1, §2
The nature of data set [3]: Cleavage study of silyl conjugates at pH 7.4 (THF:0.01 M PBS buffer, 37° C.). The following applies: THF:0.01 M PBS buffer (pH 7.4), 37° C., over 20 hours. The format is physicochemical. As to the method:
To study the release properties of the silyl conjugates, the conjugates were subject to hydrolysis conditions at both pH 7.4 and pH 4.5 to simulate blood and endosomes/lysosome environments, respectively.
Example 12 and Example 15 were dissolved in THF:0.01 M PBS buffer (pH 7.4) and heated to 37° C. with stirring for over 20 hours. […] Additionally, Example 11 was trapped with methyl-3-mercaptopropionate to approximate a bioconjugate.

[4] abbreviates: Homo sapiens, No FA, incubation 2 h.
Where [5] appears, read: Homo sapiens, No FA, incubation 4 h.
[6] abbreviates: Homo sapiens, No FA, incubation 8 h.
The mark [7] stands for this setting: Homo sapiens, No FA, incubation 16 h.

The values below come from patent US9352049B2, “Ligand-therapeutic agent conjugates, silicon-based linkers, and methods for making and using them” (Albany Molecular Research, Inc., priority 2013, dated 2016).

pIC50: −log10 of the molar value. Structures can show the parent of a compound that is named as a salt. Where two headings read alike, the source gives them in different places.

For the molecule `CC[C@]1(O)C[C@H]2CN(CCc3c([nH]c4ccccc34)[C@@](C(=O)OC)(c3cc4c(cc3OC)N(C)[C@@H]3C45CCN4CC=C[C@](CC)([C@H]45)[C@@H](O)[C@]3(O)C(=O)OC)C2)C1` (some centres unmarked) [4-desacetylvinblastine, reference compound], the pIC50 in data set [1] (No FA, incubation 2 h) was 5.34; in data set [1] (No FA, incubation 4 h), 6.20; in data set [1] (No FA, incubation 8 h) it was 6.89; in data set [1] (No FA, incubation 16 h) it was 7.24; in data set [2] (No FA, incubation 2 h) it was 7.35; in data set [2] (No FA, incubation 4 h), 8.00. Further, the pIC50 is 8.70 in data set [2] (No FA, incubation 8 h) and 8.52 in data set [2] (No FA, incubation 16 h).
As for `Nc1nc(O)c2nc(CNc3ccc(C(=O)N[C@@H](CCC(=O)NCCOCCOCCNC(=O)CCCC[Si]4(O)CCCCC4)C(=O)O)cc3)cnc2n1` [Compound Z, (S)-2-(4-(((2-amino-4-hydroxypteridin-6-yl)methyl)amino)benzamido)-20-(1-hydroxysilinan-1-yl)-5,16-dioxo-9,12-dioxa-6,15-diazaicosan-1-oic acid triethylammonium salt, reference compound], the pIC50 is less than 5.00 in data set [1] (100 μM FA, incubation 2 h); less than 5.00 in data set [1] (100 μM FA, incubation 4 h); less than 5.00 in data set [1] (100 μM FA, incubation 8 h); less than 5.00 in data set [1] (100 μM FA, incubation 16 h); less than 5.00 in data set [1] (setting [4]); less than 5.00 in data set [1] (setting [5]). Further, the pIC50 in data set [1] (setting [6]) was less than 5.00; in data set [1] (setting [7]), less than 5.00; in data set [2] (100 μM FA, incubation 2 h) it was less than 5.00; in data set [2] (100 μM FA, incubation 4 h) it was less than 5.00; in data set [2] (100 μM FA, incubation 8 h), less than 5.00; in data set [2] (100 μM FA, incubation 16 h) it was less than 5.00. For the same molecule, the pIC50 in data set [2] (setting [4]), in data set [2] (setting [5]), in data set [2] (setting [6]) and in data set [2] (setting [7]) was less than 5.00 throughout. Moreover, the inhibition at 10 µM in data set [1] (Homo sapiens, A549, 2 h, 100 μM FA, incubation 2 h) is 9%; in data set [1] (Homo sapiens, A549, 2 h, No FA, incubation 2 h), 7%; in data set [1] (Homo sapiens, A549, 4 h, 100 μM FA, incubation 4 h), not above 0%; in data set [1] (Homo sapiens, A549, 4 h, No FA, incubation 4 h) it was not above 0%; in data set [1] (Homo sapiens, A549, 8 h, 100 μM FA, incubation 8 h), not above 0%; in data set [1] (Homo sapiens, A549, 8 h, No FA, incubation 8 h), not above 0%. In addition, the inhibition at 10 µM in data set [1] (Homo sapiens, A549, 16 h, 100 μM FA, incubation 16 h) is 3.5%; in data set [1] (Homo sapiens, A549, 16 h, No FA, incubation 16 h) it was not above 0%; in data set [2] (Homo sapiens, 2 h, 100 μM FA, incubation 2 h), 1%; in data set [2] (Homo sapiens, 2 h, No FA, incubation 2 h), not above 0%; in data set [2] (Homo sapiens, 4 h, 100 μM FA, incubation 4 h), not above 0%; in data set [2] (Homo sapiens, 4 h, No FA, incubation 4 h), not above 0%. In addition, the inhibition at 10 µM in data set [2] (Homo sapiens, 8 h, 100 μM FA, incubation 8 h) is not above 0%; in data set [2] (Homo sapiens, 8 h, No FA, incubation 8 h) it was not above 0%; in data set [2] (Homo sapiens, 16 h, 100 μM FA, incubation 16 h), 2%; in data set [2] (Homo sapiens, 16 h, No FA, incubation 16 h) it was 1%.
Take `CC[C@]1(O)CC2CN(CCc3c([nH]c4ccccc34)[C@@](C(=O)OC)(c3cc4c(cc3OC)N(C)[C@H]3[C@@](O)(C(=O)OC)[C@H](O[Si]5(CCCCC(=O)OCc6ccccc6)CCCC5)[C@]5(CC)C=CCN6CC[C@]43[C@@H]65)C2)C1` (stereo partly drawn) [Example 12, (3aR,3a^1R,4R,5S,10bR)-methyl 4-((1-(5-(benzyloxy)-5-oxopentyl)silolan-1-yl)oxy)-3a-ethyl-9-((5S,7R,9S)-5-ethyl-5-hydroxy-9-(methoxycarbonyl)-2,4,5,6,7,8,9,10-octahydro-1H-3,7-methano[1]azacycloundecino[5,4-b]indol-9-yl)-5-hydroxy-8-methoxy-6-methyl-3a,3a^1,4,5,5a,6,11,12-octahydro-1H-indolizino[8,1-cd]carbazole-5-carboxylate]: in data set [3], the “hydrolysis (e.g. parent vinca) at pH 7.4” value is “No evidence of hydrolysis”.
Consider `CCC1(O)CC2CN(CCc3c([nH]c4ccccc34)C(C(=O)OC)(c3cc4c(cc3OC)N(C)C3C(O)(C(=O)OC)C(O[Si]5(CCCCC(=O)NCCOCCOCCNC(=O)CCC(NC(=O)c6ccc(NCc7cnc8nc(N)nc(O)c8n7)cc6)C(=O)O)CCCCC5)C5(CC)C=CCN6CCC43C65)C2)C1` (centres unmarked) [Example 20], for which the “Percentage inhibition at the highest concentration tested (10 μM)” value in data set [1] (100 μM FA, incubation 2 h) is on record as 44%; in data set [1] (No FA, incubation 2 h), 20%; in data set [1] (No FA, incubation 4 h), 46%. In addition, the pIC50 was less than 5.00 in data set [1] (100 μM FA, incubation 2 h); 5.18 in data set [1] (100 μM FA, incubation 4 h); 5.39 in data set [1] (100 μM FA, incubation 8 h); 5.85 in data set [1] (100 μM FA, incubation 16 h); less than 5.00 in data set [1] (No FA, incubation 2 h); less than 5.00 in data set [1] (No FA, incubation 4 h). In addition, the pIC50 in data set [1] (No FA, incubation 8 h) was 5.17; in data set [1] (No FA, incubation 16 h), 5.85; in data set [2] (100 μM FA, incubation 2 h) it was 5.38; in data set [2] (100 μM FA, incubation 4 h), 5.47; in data set [2] (100 μM FA, incubation 8 h), 5.51; in data set [2] (100 μM FA, incubation 16 h) it was 5.82. Also, the pIC50 in data set [2] (No FA, incubation 2 h) was 5.46; in data set [2] (No FA, incubation 4 h), 5.59; in data set [2] (No FA, incubation 8 h), 5.74; in data set [2] (No FA, incubation 16 h), 6.52.
`CC[C@]1(O)CC2CN(CCc3c([nH]c4ccccc34)[C@@](C(=O)OC)(c3cc4c(cc3OC)N(C)[C@H]3[C@@](O)(C(=O)OC)[C@H](O[Si]5(CCCCC(=O)NCCOCCOCCOCCNC(=O)CC[C@H](NC(=O)c6ccc(NCc7cnc8nc(N)nc(O)c8n7)cc6)C(=O)O)CCCCC5)[C@]5(CC)C=CCN6CC[C@]43[C@@H]65)C2)C1` (some centres unmarked) [Example 21]: the “Percentage inhibition at the highest concentration tested (10 μM)” value in data set [1] (100 μM FA, incubation 2 h) amounted to 40%; in data set [1] (No FA, incubation 2 h), 8%; in data set [1] (No FA, incubation 4 h), 24%; in data set [1] (No FA, incubation 8 h) it was 47%. Moreover, the pIC50 in data set [1] (100 μM FA, incubation 2 h) was less than 5.00; in data set [1] (100 μM FA, incubation 4 h) it was 5.07; in data set [1] (100 μM FA, incubation 8 h) it was 5.28; in data set [1] (100 μM FA, incubation 16 h) it was 5.74; in data set [1] (No FA, incubation 2 h), less than 5.00; in data set [1] (No FA, incubation 4 h), less than 5.00. For the same molecule, the pIC50 in data set [1] (No FA, incubation 8 h) is less than 5.00; in data set [1] (No FA, incubation 16 h), 5.36; in data set [2] (100 μM FA, incubation 2 h), 5.22; in data set [2] (100 μM FA, incubation 4 h), 5.40; in data set [2] (100 μM FA, incubation 8 h), 5.51; in data set [2] (100 μM FA, incubation 16 h), 5.77. Further, the pIC50 in data set [2] (No FA, incubation 2 h) is 5.39; in data set [2] (No FA, incubation 4 h) it was 5.51; in data set [2] (No FA, incubation 8 h), 5.64; in data set [2] (No FA, incubation 16 h) it was 5.82.
